Reference: ChEMBL document CHEMBL1201862, “PubChem BioAssay data set” (2004)
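In this assay, cells in 96-well plates receive the compound at five concentrations for 48 hours. Endpoints are linearly interpolated between the surrounding concentrations. GI50 = concentration required for 50% inhibition of growth.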 The source made the active and inactive calls. No stated cut-off is given here; in the data, active = GI50 up to about 1.1 µM and inactive = higher.

How the values were obtained:
Assay in all cases: NCI anticancer screen, dose series, 48 h
IGROV-1 = tested on: IGROV-1
HCT-15 = tested on: HCT-15
LOX IMVI = tested on: LOX IMVI
ACHN = tested on: ACHN
SNB-75 = tested on: SNB-75
OVCAR-4 = tested on: OVCAR-4
NCI-H522 = tested on: NCI-H522
PC-3 = tested on: PC-3
CAKI-1 = tested on: CAKI-1
NCI/ADR-RES = tested on: NCI/ADR-RES
SF-295 = tested on: SF-295
COLO 205 = tested on: COLO 205
SN12C = tested on: SN12C
SK-MEL-28 = tested on: SK-MEL-28
K562 = tested on: K562
A549 = tested on: A549
Hs-578T = tested on: Hs-578T
OVCAR-3 = tested on: OVCAR-3
UACC-62 = tested on: UACC-62
SK-MEL-5 = tested on: SK-MEL-5

| SMILES | GI50 (IGROV-1) | GI50 (HCT-15) | GI50 (LOX IMVI) | GI50 (ACHN) | GI50 (SNB-75) | GI50 (OVCAR-4) | GI50 (NCI-H522) | GI50 (PC-3) | GI50 (CAKI-1) | GI50 (NCI/ADR-RES) | GI50 (SF-295) | GI50 (COLO 205) | GI50 (SN12C) | GI50 (SK-MEL-28) | GI50 (K562) | GI50 (A549) | GI50 (Hs-578T) | GI50 (OVCAR-3) | GI50 (UACC-62) | GI50 (SK-MEL-5) |
| --- | --- | --- | --- | --- | --- | --- | --- | --- | --- | --- | --- | --- | --- | --- | --- | --- | --- | --- | --- | --- |
| C=C1C(=O)C23CC1C[C@H](OC(C)=O)C2C1(C)C(OC(C)=O)C[C@H](O)C(C)(C)[C@H]1C(O)[C@@H]3OC(C)=O (stereo not given in full) | 16.5 µM (inactive) | 10.4 µM | 14.9 µM (inactive) | 11.9 µM (inactive) | 18.8 µM (inactive) | 10.8 µM (inactive) | 1.61 µM (inactive) | 11.1 µM (inactive) | 16.4 µM (inactive) | > 100 µM (inactive) | 24.8 µM (inactive) | 4.13 µM (inactive) | 8.07 µM (inactive) | 11.9 µM (inactive) | 3.56 µM (inactive) | 22.9 µM (inactive) | 15.8 µM (inactive) | 7.18 µM (inactive) | 13.3 µM (inactive) | 14.6 µM (inactive) |
| CN(CCc1ccccn1)c1ccc2c(c1)C(=O)c1ccccc1-2 | > 100 µM (inactive) | 23 µM | > 100 µM (inactive) | > 100 µM (inactive) | 99.1 µM (inactive) | 69.5 µM (inactive) | 71.1 µM (inactive) | > 100 µM (inactive) | > 100 µM (inactive) | > 100 µM (inactive) | 91.4 µM (inactive) | 35.5 µM (inactive) | 53.8 µM (inactive) | > 100 µM (inactive) | 51.8 µM (inactive) | 14.4 µM (inactive) | 73.3 µM (inactive) | > 100 µM (inactive) | 46.1 µM (inactive) | 35.1 µM (inactive) |
| N#CC(C#N)C1CN2CCC1CC2 (stereo not given) | > 100 µM (inactive) | > 100 µM | > 100 µM (inactive) | > 100 µM (inactive) | > 100 µM (inactive) | > 100 µM (inactive) | > 100 µM (inactive) | > 100 µM (inactive) | > 100 µM (inactive) | > 100 µM (inactive) | > 100 µM (inactive) | > 100 µM (inactive) | > 100 µM (inactive) | > 100 µM (inactive) | > 100 µM (inactive) | > 100 µM (inactive) | > 100 µM (inactive) | > 100 µM (inactive) | > 100 µM (inactive) | > 100 µM (inactive) |
| CC(=O)/C(=C/NC(=S)c1cccnc1)C(=O)Nc1ccccc1C | > 100 µM (inactive) | > 100 µM | > 100 µM (inactive) | > 100 µM (inactive) | > 100 µM (inactive) | > 100 µM (inactive) | 96.6 µM (inactive) | 68.9 µM (inactive) | 41.3 µM (inactive) | 97.5 µM (inactive) | > 100 µM (inactive) | > 100 µM (inactive) | > 100 µM (inactive) | > 100 µM (inactive) | > 100 µM (inactive) | > 100 µM (inactive) | > 100 µM (inactive) | 82.6 µM (inactive) | > 100 µM (inactive) | > 100 µM (inactive) |
| COc1ccc(N2N=NN(C(C)C)/C2=C(/Cl)c2nnnn2-c2ccc(OC)cc2)cc1 | 14.9 µM (inactive) | 15.8 µM | 2 µM (inactive) | 16.6 µM (inactive) | 13 µM (inactive) | 5.01 µM (inactive) | 2.76 µM (inactive) | 14.6 µM (inactive) | 1.75 µM (inactive) | 27.7 µM (inactive) | 16.6 µM (inactive) | 3.72 µM (inactive) | 14.3 µM (inactive) | 15.5 µM (inactive) | 3.9 µM (inactive) | 17.8 µM (inactive) | 22.1 µM (inactive) | 9.62 µM (inactive) | 14.4 µM (inactive) | 15.2 µM (inactive) |
| CCCCCCCCCCCCCCCCOP(=O)(O)OCC(N)C(=O)O (stereo not given) | 18.4 µM (inactive) | 27.7 µM | 13.5 µM (inactive) | 16.3 µM (inactive) | 25.4 µM (inactive) | 18.7 µM (inactive) | 20.3 µM (inactive) | 12 µM (inactive) | 13 µM (inactive) | 33.3 µM (inactive) | 14.5 µM (inactive) | 20.7 µM (inactive) | 18.3 µM (inactive) | 43.1 µM (inactive) | 22.8 µM (inactive) | 21.9 µM (inactive) | 16.1 µM (inactive) | 17.4 µM (inactive) | 18 µM (inactive) | 17.8 µM (inactive) |
| COC(=O)c1c2c(cc3c1CC1(C3)Cc3cc4c(c(C(C)=O)c3C1)CCC4)C=CC2 (stereo not given) | > 31.6 µM (inactive) | 18.3 µM | > 10 µM (inactive) | 10.2 µM (inactive) | 4.6 µM (inactive) | 24.5 µM (inactive) | 27.6 µM (inactive) | > 31.6 µM (inactive) | 44.2 µM (inactive) | > 31.6 µM (inactive) | > 31.6 µM (inactive) | > 31.6 µM (inactive) | > 31.6 µM (inactive) | 29.4 µM (inactive) | 27 µM (inactive) | > 31.6 µM (inactive) | > 31.6 µM (inactive) | > 31.6 µM (inactive) | 30.7 µM (inactive) | 18.6 µM (inactive) |
